The values that follow come from PMC5471438, “Linaclotide activates guanylate cyclase‐C/cGMP/protein kinase‐II‐dependent trafficking of CFTR in the intestine” (Physiological Reports, 2017).

“Also recorded” adds a separate entry of the source.

One test concerns GC‐C/cGMP pathway. Particulars: modulated by MRP4; ref Tchernychev et al. 2015; cited from earlier work. From the text: The cystic fibrosis transmembrane conductance regulator (CFTR) is a cyclic adenosine monophosphate (cAMP) and cGMP‐regulated anion‐selective channel that is expressed on the apical domain of intestinal epithelial cells where it serves as the main conductive pathway for Cl^− and HCO3 ^− ions transported across the membrane into the lumen (Riordan et al. 1989; Anderson et al. 1991; Vaandrager et al. 1997).

A further test has as its system rat jejunum. In words: Fluid secretion in ligated rat jejunal loops in vivo. Also on record: species or system rat (Sprague–Dawley). Particulars: linaclotide 5 μg/mL/loop, 30 min, vs saline (1 mL). As for the experimental part:
All animal studies were approved by the Institutional Animal Care and Use Committee of Yale University School of Medicine. Briefly, male Sprague–Dawley rats (200–250 g, Charles River Laboratories) were fasted overnight with access to drinking water ad libitum. Anesthesia was performed with Inactin® (Thiobutabarbital sodium salt hydrate, 120 mg/kg/i.p.). The jejunal, ileal, and proximal colonic loops (5 cm length) were prepared using sutures. Loops were instilled either with normal saline (pH7.4, 37°C) (1 mL/loop) or linaclotide (5 μg/mL/loop) for 30 min. At the end of the study, animals were euthanized with Inactin (200 mg/kg/i.p.).
The guanylate cyclase‐C (GC‐C) agonist linaclotide stimulates the production and accumulation of intracellular cGMP, which acts as a second messenger to enhance fluid secretion in the intestine (Schulz et al. 1990; Busby et al. 2013). We first tested whether linaclotide can enhance fluid secretion in vivo in the rat small intestine. Following anesthesia and laparotomy, intestinal loops were created in rat jejunum and injected either with vehicle (saline, 1 mL) or linaclotide (5 μg/1 mL). […] In this study, we examined whether linaclotide treatment also stimulates fluid secretion by recruiting CFTR to the apical surface of rat jejunum enterocytes in vivo. […]

For another test, the system named is cGKII (PKGII). In words: VASP Ser239 phosphorylation in C2BBe cells, Western blot. The following applies: linaclotide 1 and 3.27 μmol/L, 30 min, 8Br‐cGMP 0.2 and 1 mmol/L positive control. In kind it is cell-based, human. The method, then:
C2BBe or T84 cells were homogenized in TGH lysis buffer [25 mmol/L HEPES, 10% (vol/vol) glycerol, 1% (vol/vol) Triton‐ × 100, pH 7.4] containing protease inhibitors (10 nmol/L iodoacetamide, 1 mmol/L phenylmethylsulfonyl fluoride (PMSF), 2 μg/mL leupeptin) for 30 min on ice. Homogenates were solubilized, subject to centrifugation at 13,200 g for 15 min at 4°C, and cleared supernatants were recovered. Protein concentration of the supernatant was determined with Coomassie Protein Assay Reagent (Pierce) and samples prepared and analyzed as described (Kravtsov et al. 2016). Quantification of surface‐labeled proteins was performed with Quantity One image analysis software.
VASP was originally characterized as a substrate for both PKG (cGMP‐dependent kinase) and PKA (cAMP‐dependent kinase). […] To determine linaclotide‐induced activation of cGKII, we determined the phosphorylation of VASP^Ser239 30 min following treatment either with vehicle or linaclotide (1 μmol/L and 3.27 μmol/L; the 3.27 μmol/L concentration is equivalent to the 5 μg dose of linaclotide that was used in vivo in the rat jejunum loop). The membrane permeant cGMP analog, 8 Br‐cGMP (0.2 mmol/L, 1 mmol/L), was used as a positive control.
A general note: In western blotting, separated proteins are transferred to a membrane and probed.

linaclotide: the transepithelial electrolyte secretion result in the test with GC‐C/cGMP pathway is on record as “increased transepithelial electrolyte secretion across the mucosa”. Besides, in the test on rat jejunum, the “fluid secretion in jejunal loop” value was “robust fluid secretion; also recorded: distended and tightly filled with fluid; also recorded: robust increase in fluid accumulation in jejunum loops”. In addition, the “phosphorylation of VASP Ser239” value with cGKII (PKGII) was “more robust phosphorylation of VASP^Ser239 compared to 8Br‐cGMP; also recorded: higher levels of VASP^Ser239 phosphorylation compared to the lower concentration”; in the test with cGKII (PKGII) (listed as Linaclotide) it was “more strongly enhanced phosphorylation of VASP^Ser239 compared to the cGMP analog 8‐Br‐cGMP”.
